Reference: patent publication US12264156B2, “Compounds and pharmaceutical compositions thereof for the treatment of diseases” (GALAPAGOS NV, priority 2018, dated 2025)

Experiments:
Type in all cases: biochemical
Conditions in all cases: ADP-Glo SIK kinase assay
[1] = biological target: T1, SIK1 (Homo sapiens, UniProt P57059); experiment: ADP-Glo kinase assay, SIK1
T1 construct: purchased Carna Biosciences 02-131
Outline: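 ADP-Glo, RT throughout. Enz/substrate + ATP, 120 min; ADP-Glo reagent 40 min (ATP depletion); detection reagent 30 min; luminescence read. Neg ctrl 1% DMSO, pos ctrl 10 μM staurosporine, final concs.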

[2] = biological target: T2, SIK3 (Homo sapiens, UniProt Q9Y2K2); experiment: ADP-Glo kinase assay, SIK3
T2 construct: purchased SignalChem S12-11G-100
Outline: (§1)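 Enzyme–substrate mix was started with ATP and incubated 120 min at RT. ADP formed was quantified by ADP-Glo: 40 min ATP depletion, then 30 min detection reagent converting ADP to ATP for luciferase luminescence, which rises with kinase activity. Controls: 1% DMSO and 10 μM staurosporine (final).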

[3] = biological target: T3, SIK2 (Homo sapiens, UniProt Q9H0K1); experiment: ADP-Glo kinase assay, SIK2
T3 construct: purchased ThermoFisher Scientific PV4792
Outline: as §1

T3 sequence (Q9H0K1 whole entry): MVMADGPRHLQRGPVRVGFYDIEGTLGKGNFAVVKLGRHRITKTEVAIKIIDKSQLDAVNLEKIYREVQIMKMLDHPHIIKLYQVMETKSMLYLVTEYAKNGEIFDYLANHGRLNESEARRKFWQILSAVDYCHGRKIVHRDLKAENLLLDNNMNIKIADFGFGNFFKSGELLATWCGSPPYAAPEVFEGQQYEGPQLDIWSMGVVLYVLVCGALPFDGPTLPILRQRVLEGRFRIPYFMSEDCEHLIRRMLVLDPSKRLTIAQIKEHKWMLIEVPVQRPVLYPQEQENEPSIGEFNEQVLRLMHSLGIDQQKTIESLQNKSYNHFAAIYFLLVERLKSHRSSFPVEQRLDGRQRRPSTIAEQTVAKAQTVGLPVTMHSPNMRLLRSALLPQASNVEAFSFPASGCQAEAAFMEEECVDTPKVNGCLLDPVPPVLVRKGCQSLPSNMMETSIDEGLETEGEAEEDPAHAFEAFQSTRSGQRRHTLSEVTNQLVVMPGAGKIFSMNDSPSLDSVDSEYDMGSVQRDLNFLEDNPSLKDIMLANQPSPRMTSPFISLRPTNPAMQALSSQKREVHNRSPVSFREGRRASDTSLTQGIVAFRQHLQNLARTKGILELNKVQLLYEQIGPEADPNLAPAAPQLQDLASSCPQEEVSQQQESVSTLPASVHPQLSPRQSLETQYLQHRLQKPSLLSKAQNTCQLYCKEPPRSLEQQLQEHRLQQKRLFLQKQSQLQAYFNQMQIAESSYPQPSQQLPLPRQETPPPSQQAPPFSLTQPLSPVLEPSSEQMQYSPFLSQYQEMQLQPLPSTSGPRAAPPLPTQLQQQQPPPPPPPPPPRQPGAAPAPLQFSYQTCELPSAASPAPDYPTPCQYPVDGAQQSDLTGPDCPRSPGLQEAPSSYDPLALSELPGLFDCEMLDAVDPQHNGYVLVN
T2 sequence (Q9Y2K2 whole entry): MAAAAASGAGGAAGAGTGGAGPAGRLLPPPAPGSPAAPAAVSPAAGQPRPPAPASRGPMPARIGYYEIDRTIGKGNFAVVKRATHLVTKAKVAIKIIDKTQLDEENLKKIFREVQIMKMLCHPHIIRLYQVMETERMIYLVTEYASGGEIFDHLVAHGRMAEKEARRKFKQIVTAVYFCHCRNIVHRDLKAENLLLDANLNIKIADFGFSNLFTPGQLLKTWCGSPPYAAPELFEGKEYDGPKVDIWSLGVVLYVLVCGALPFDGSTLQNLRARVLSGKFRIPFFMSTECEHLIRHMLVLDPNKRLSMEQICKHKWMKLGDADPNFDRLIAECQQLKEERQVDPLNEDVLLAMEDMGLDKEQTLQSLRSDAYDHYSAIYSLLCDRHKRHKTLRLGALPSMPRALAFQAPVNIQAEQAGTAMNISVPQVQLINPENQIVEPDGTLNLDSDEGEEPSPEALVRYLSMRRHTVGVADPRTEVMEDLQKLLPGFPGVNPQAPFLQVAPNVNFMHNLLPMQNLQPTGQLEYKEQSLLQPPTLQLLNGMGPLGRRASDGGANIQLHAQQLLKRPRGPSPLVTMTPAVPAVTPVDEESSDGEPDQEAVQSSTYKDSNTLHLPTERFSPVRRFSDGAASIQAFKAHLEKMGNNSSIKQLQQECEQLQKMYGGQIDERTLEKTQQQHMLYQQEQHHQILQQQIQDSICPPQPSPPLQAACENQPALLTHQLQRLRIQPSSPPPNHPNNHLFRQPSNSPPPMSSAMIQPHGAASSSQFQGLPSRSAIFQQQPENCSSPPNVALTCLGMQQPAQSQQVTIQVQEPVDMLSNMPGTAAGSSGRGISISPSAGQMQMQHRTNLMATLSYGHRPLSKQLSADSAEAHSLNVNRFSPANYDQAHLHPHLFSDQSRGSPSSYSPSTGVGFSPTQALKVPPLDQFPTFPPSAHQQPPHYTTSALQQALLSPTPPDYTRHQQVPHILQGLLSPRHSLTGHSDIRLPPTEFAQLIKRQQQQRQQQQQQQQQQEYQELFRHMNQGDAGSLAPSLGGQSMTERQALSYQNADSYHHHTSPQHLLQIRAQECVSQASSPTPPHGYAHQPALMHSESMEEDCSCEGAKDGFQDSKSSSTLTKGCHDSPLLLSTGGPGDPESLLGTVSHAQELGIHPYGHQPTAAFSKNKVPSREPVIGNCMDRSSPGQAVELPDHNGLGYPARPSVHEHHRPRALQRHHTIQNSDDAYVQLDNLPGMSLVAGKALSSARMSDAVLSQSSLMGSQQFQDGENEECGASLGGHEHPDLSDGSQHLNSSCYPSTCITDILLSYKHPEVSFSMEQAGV
T1 sequence (P57059 whole entry): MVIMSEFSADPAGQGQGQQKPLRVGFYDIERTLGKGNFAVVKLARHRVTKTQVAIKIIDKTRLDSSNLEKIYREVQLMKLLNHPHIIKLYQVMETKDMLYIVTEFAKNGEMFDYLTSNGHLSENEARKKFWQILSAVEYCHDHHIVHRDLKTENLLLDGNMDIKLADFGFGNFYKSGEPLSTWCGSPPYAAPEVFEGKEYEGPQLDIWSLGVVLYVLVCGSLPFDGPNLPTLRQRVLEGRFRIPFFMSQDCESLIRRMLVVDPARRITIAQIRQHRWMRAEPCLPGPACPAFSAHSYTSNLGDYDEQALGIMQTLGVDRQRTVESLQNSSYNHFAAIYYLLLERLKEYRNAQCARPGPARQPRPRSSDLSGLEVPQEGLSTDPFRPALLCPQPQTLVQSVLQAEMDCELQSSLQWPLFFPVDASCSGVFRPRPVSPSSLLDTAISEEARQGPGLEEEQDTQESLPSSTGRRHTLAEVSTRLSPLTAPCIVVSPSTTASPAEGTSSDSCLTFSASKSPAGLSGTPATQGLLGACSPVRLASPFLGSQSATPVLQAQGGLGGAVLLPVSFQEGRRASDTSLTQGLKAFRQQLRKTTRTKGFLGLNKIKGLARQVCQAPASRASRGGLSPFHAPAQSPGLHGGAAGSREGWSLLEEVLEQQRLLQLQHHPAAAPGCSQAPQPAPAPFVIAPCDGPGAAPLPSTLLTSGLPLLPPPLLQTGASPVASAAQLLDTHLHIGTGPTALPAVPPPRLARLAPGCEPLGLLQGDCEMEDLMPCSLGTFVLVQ

| IC50 [1] [nM] | IC50 [2] [nM] | IC50 [3] [nM] | Structure (SMILES) |
| --- | --- | --- | --- |
| 10 to 100 | 0.01 to 10 | 0.01 to 10 | COc1cc(-c2cnc3cc(OCC4(N)COC4)ccn23)cc(OC(F)F)c1C(=O)NC1CC1 [compound 170, 4-[7-[(3-aminooxetan-3-yl)methoxy]imidazo[1,2-a]pyridin-3-yl]-N-cyclopropyl-2-(difluoromethoxy)-6-methoxy-benzamide] |
| > 500 | 10 to 100 | 100 to 500 | COc1cc(-c2cnc3cc(OCCN4CCOCC4)ccn23)cc(C)c1C(=O)NC1CC1 [compound 222, N-cyclopropyl-2-methoxy-6-methyl-4-[7-(2-morpholinoethoxy)imidazo[1,2-a]pyridin-3-yl]benzamide] |
| 0.01 to 10 | 0.01 to 10 | 0.01 to 10 | COc1cc(-c2cnc3cc(OCCNc4ncccn4)ccn23)cc(OC(F)F)c1C(=O)NC1CC1 [compound 368, N-cyclopropyl-2-(difluoromethoxy)-6-methoxy-4-[7-[2-(pyrimidin-2-ylamino)ethoxy]imidazo [1,2-a]pyridin-3-yl]benzamide] |
| > 500 | > 500 | > 500 | O=C1c2ncc(-c3cnc4cc(OCCN5CCOCC5)ccn34)cc2CN1CC(F)(F)F [Cpd 266, 3-[7-(2-morpholinoethoxy)imidazo [1,2-a]pyridin-3-yl]-6-(2,2,2-trifluoroethyl)-5H-pyrrolo[3,4-b]pyridin-7-one] |
| 10 to 100 | 0.01 to 10 | 0.01 to 10 | COc1cc(-c2cnc3cc(OCCO)ccn23)cc(OC(F)F)c1C(=O)NC1CC1 [compound 30, N-cyclopropyl-2-(difluoromethoxy)-4-[7-(2-hydroxyethoxy)imidazo [1,2-a]pyridin-3-yl]-6-methoxy-benzamide] |
| 100 to 500 | 0.01 to 10 | 10 to 100 | CCC(COc1ccn2c(-c3cc(OC)c(C(=O)NC4CC4)c(OC(F)F)c3)cnc2c1)N(C)C (stereo not drawn) [compound 203] |
| 10 to 100 | 0.01 to 10 | 0.01 to 10 | COc1cc(-c2cnc3cc(OCCN4CCOC(C(F)(F)F)C4)ccn23)cc(OC(F)F)c1C(=O)NC1CC1 (stereo not drawn) [compound 179, N-cyclopropyl-2-(difluoromethoxy)-6-methoxy-4-[7-[2-[2-(trifluoromethyl)morpholin-4-yl]ethoxy]imidazo[1,2-a]pyridin-3-yl]benzamide] |
| 10 to 100 | 0.01 to 10 | 0.01 to 10 | COc1cc(-c2cnc3cc(OCCN4CCC(F)(F)C4)ccn23)cc(OC(F)F)c1C(=O)NC1CC1 [compound 180, N-cyclopropyl-2-(difluoromethoxy)-4-[7-[2-(3,3-difluoropyrrolidin-1-yl)ethoxy]imidazo[1,2-a]pyridin-3-yl]-6-methoxy-benzamide] |
| > 500 | 10 to 100 | 10 to 100 | CN(C)CCOc1ccn2c(-c3cc(F)c(C(=O)NC4CC4)c(OC(F)F)c3)cnc2c1 [compound 146, N-cyclopropyl-2-(difluoromethoxy)-4-[7-[2-(dimethylamino)ethoxy]imidazo[1,2-a]pyridin-3-yl]-6-fluoro-benzamide] |
| 0.01 to 10 | 0.01 to 10 | 0.01 to 10 | COc1cc(-c2cnc3cc(OCC4CC(N)C4)ccn23)cc(OC(F)F)c1C(=O)NC1CC1 (stereo not drawn) [compound 108, 4-[7-[(3-aminocyclobutyl)methoxy]imidazo[1,2-a]pyridin-3-yl]-N-cyclopropyl-2-(difluoromethoxy)-6-methoxy-benzamide] |
| 10 to 100 | 0.01 to 10 | 0.01 to 10 | COc1cc(-c2cnc3cc(OC[C@H]4CCCN4CC(F)F)ccn23)cc(OC(F)F)c1C(=O)NC1CC1 [compound 80, N-cyclopropyl-4-[7-[[(2R)-1-(2,2-difluoroethyl)pyrrolidin-2-yl]methoxy]imidazo[1,2-a]pyridin-3-yl]-2-(difluoromethoxy)-6-methoxy-benzamide] |
| 100 to 500 | 10 to 100 | 10 to 100 | COc1cc(-c2cnc3cc(OC4CN(C)C4)ccn23)cc(OC(F)F)c1C(=O)NC1CC1 [compound 29, N-cyclopropyl-2-(difluoromethoxy)-6-methoxy-4-[7-(1-methylazetidin-3-yl)oxyimidazo[1,2-a]pyridin-3-yl]benzamide] |
| 10 to 100 | 0.01 to 10 | 0.01 to 10 | COC(=O)C1(COc2ccn3c(-c4cc(OC)c(C(=O)NC5CC5)c(OC(F)F)c4)cnc3c2)CC1 [compound 57, methyl 1-[[3-[4-(cyclopropylcarbamoyl)-3-(difluoromethoxy)-5-methoxy-phenyl]imidazo[1,2-a]pyridin-7-yl]oxymethyl] cyclopropanecarboxylate] |
| 10 to 100 | 0.01 to 10 | 0.01 to 10 | COc1cc(-c2cnc3cc(OCCCN4CCc5ncncc5C4)ccn23)cc(OC(F)F)c1C(=O)NC1CC1 [compound 304, N-cyclopropyl-2-(difluoromethoxy)-4-[7-[3-(7,8-dihydro-5H-pyrido[4,3-d]pyrimidin-6-yl)propoxy]imidazo[1,2-a]pyridin-3-yl]-6-methoxy-benzamide] |
| 0.01 to 10 | 0.01 to 10 | 0.01 to 10 | COc1cc(-c2cnc3cc(OCC(C)(C)C)ccn23)cc(OC(F)F)c1C(=O)NC1CC1 [compound 66, N-cyclopropyl-2-(difluoromethoxy)-4-[7-(2,2-dimethylpropoxy)imidazo [1,2-a]pyridin-3-yl]-6-methoxy-benzamide] |
| 0.01 to 10 | 0.01 to 10 | 0.01 to 10 | COc1cc(-c2cnc3cc(OCCNC(C)=O)ccn23)cc(OC(F)F)c1C(=O)NC1CC1 [compound 27, 4-[7-(2-acetamidoethoxy)imidazo [1,2-a]pyridin-3-yl]-N-cyclopropyl-2-(difluoromethoxy)-6-methoxy-benzamide] |
| 0.01 to 10 | 0.01 to 10 | 0.01 to 10 | COc1cc(-c2cnc3cc(OCC4CCCC4)ccn23)cc(OC(F)F)c1C(=O)NC1CC1 [compound 61, 4-[7-(cyclopentylmethoxy)imidazo[1,2-a]pyridin-3-yl]-N-cyclopropyl-2-(difluoromethoxy)-6-methoxy-benzamide] |
| 10 to 100 | 0.01 to 10 | 0.01 to 10 | COc1cc(-c2cnc3cc(OCC4CNC(=O)C4)ccn23)cc(OC(F)F)c1C(=O)NC1CC1 (stereo not drawn) [compound 102, N-cyclopropyl-2-(difluoromethoxy)-6-methoxy-4-[7-[(5-oxopyrrolidin-3-yl)methoxy]imidazo[1,2-a]pyridin-3-yl]benzamide] |
| 10 to 100 | 0.01 to 10 | 0.01 to 10 | COC(=O)NCC(F)(F)COc1ccn2c(-c3cc(OC)c(C(=O)NC4CC4)c(OC(F)F)c3)cnc2c1 [Cpd 365, methyl N-[3-[3-[4-(cyclopropylcarbamoyl)-3-(difluoromethoxy)-5-methoxy-phenyl]imidazo[1,2-a]pyridin-7-yl]oxy-2,2-difluoro-propyl]carbamate] |
| 10 to 100 | 0.01 to 10 | 0.01 to 10 | COc1cc(-c2cnc3cc(OCCCN4CC5(CC(O)C5)C4)ccn23)cc(OC(F)F)c1C(=O)NC1CC1 [compound 297, N-cyclopropyl-2-(difluoromethoxy)-4-[7-[3-(6-hydroxy-2-azaspiro[3.3]heptan-2-yl)propoxy]imidazo[1,2-a]pyridin-3-yl]-6-methoxy-benzamide] |
| 100 to 500 | 0.01 to 10 | 10 to 100 | COc1cc(-c2cnc3cc(OCC(C)(C)N4CCOCC4)ccn23)cc(OC(F)F)c1C(=O)NC1CC1 [compound 11, N-cyclopropyl-2-(difluoromethoxy)-6-methoxy-4-[7-(2-methyl-2-morpholino-propoxy)imidazo[1,2-a]pyridin-3-yl]benzamide] |
| 10 to 100 | 0.01 to 10 | 0.01 to 10 | COCCOc1ccn2c(-c3cc(OC)c(C(=O)NC4CC4)c(OC(F)F)c3)cnc2c1 [compound 70, N-cyclopropyl-2-(difluoromethoxy)-6-methoxy-4-[7-(2-methoxyethoxy)imidazo [1,2-a]pyridin-3-yl]benzamide] |
| 10 to 100 | 0.01 to 10 | 0.01 to 10 | COc1cc(-c2cnc3cc(OCC(O)CN4CC[C@@H](O)C4)ccn23)cc(OC(F)F)c1C(=O)NC1CC1 (stereo partly drawn) [compound 376, N-cyclopropyl-2-(difluoromethoxy)-4-[7-[2-hydroxy-3-[(3R)-3-hydroxypyrrolidin-1-yl]propoxy]imidazo[1,2-a]pyridin-3-yl]-6-methoxy-benzamide] |
| 10 to 100 | 0.01 to 10 | 0.01 to 10 | COc1cc(-c2cnc3cc(OCCCN4CCc5nc(C)sc5C4)ccn23)cc(OC(F)F)c1C(=O)NC1CC1 [compound 320, N-cyclopropyl-2-(difluoromethoxy)-6-methoxy-4-[7-[3-(2-methyl-6,7-dihydro-4H-thiazolo[5,4-c]pyridin-5-yl)propoxy]imidazo[1,2-a]pyridin-3-yl]benzamide] |
| 10 to 100 | 0.01 to 10 | 0.01 to 10 | COc1cc(-c2cnc3cc(OC[C@H]4CCN(CCO)C4)ccn23)cc(OC(F)F)c1C(=O)NC1CC1 [Cpd 341, N-cyclopropyl-2-(difluoromethoxy)-4-[7-[[(3S)-1-(2-hydroxyethyl)pyrrolidin-3-yl]methoxy]imidazo[1,2-a]pyridin-3-yl]-6-methoxy-benzamide] |
| 10 to 100 | 0.01 to 10 | 0.01 to 10 | COc1cc(-c2cnc3cc(OCC4(C)COC4)ccn23)cc(OC(F)F)c1C(=O)NC1CC1 [compound 89, N-cyclopropyl-2-(difluoromethoxy)-6-methoxy-4-[7-[(3-methyloxetan-3-yl)methoxy]imidazo[1,2-a]pyridin-3-yl]benzamide] |
